Experimental data taken from the NIST ThermoML archive (doi:10.1021/je101250d).
Values joined by “and” are separate entries in the source; they are usually repeats but may differ in a detail not shown here. Equal values may be shown once.

Tests used:
[1] = Liquid; for mass density: 298.15 K, 101.33 kPa, Vibrating tube method
[2] = Boiling temperature at pressure P; conditions: 101.33 kPa; Liquid; Ebulliometric method (Recirculating still)
[3] = refractive index (Na D-line) (dimensionless); conditions: 298.15 K; 101.33 kPa; Liquid; Standard Abbe refractometry

CCCCCCC [heptane]
Conditions	Boiling temperature at pressure P [°C]	mass density [kg/m3]	refractive index
[1]	–	679.55	–
[2]	98.4	–	–
[3]	–	–	1.38668

[1]
Conditions	vapor or sublimation pressure
319.06 K	16.01 kPa
329.07 K	24.01 kPa
334.91 K	30.01 kPa
339.08 K	35.01 kPa
342.78 K	40.01 kPa
346.14 K	45.01 kPa
349.19 K	50.01 kPa and 50 kPa
349.24 K	50 kPa
352.01 K	55.01 kPa
354.63 K	60.01 kPa
357.1 K	65.01 kPa
359.42 K	70.01 kPa
361.59 K	75.01 kPa
361.6 K	75 kPa
361.66 K	75 kPa
363.67 K	80.01 kPa
366.41 K	87.01 kPa
368.98 K	94 kPa
368.99 K	94.01 kPa
369.04 K	94 kPa
371.63 K	101.74 kPa

CCC(C)(C)OC [2-methoxy-2-methylbutane]
Conditions	Boiling temperature at pressure P [°C]	mass density [kg/m3]	refractive index
[1]	–	765.83	–
[2]	86.37	–	–
[3]	–	–	1.38712

[1]
Conditions	vapor or sublimation pressure [kPa]
313.44 K	20.01
318.99 K	25.01
323.68 K	30.01
327.77 K	35.01
331.41 K	40.01
334.69 K	45.01
337.64 K	50
337.66 K	50
337.69 K	50.01
340.46 K	55.01
343.03 K	60.01
345.89 K	66.01
348.97 K	73.01
349.73 K	75
349.8 K	75
351.84 K	80.01
354.52 K	87.01
356.92 K	94
357.02 K	94.01
357.04 K	94
359.95 K	102.73

CCC(C)O (stereo not given) [butan-2-ol]
Conditions	mass density [kg/m3]	refractive index
[1]	802.98	–
[3]	–	1.39676

[1]
Conditions	vapor or sublimation pressure [kPa]
334.83 K	20.01
339.42 K	25.01
343.31 K	30.01
346.69 K	35.01
349.69 K	40.01
352.38 K	45.01
354.84 K	50.01
354.91 K	50
355.12 K	50
357.11 K	55.01
359.21 K	60.01
361.55 K	66.01
364.08 K	73.01
364.8 K	75
365.2 K	75
366.4 K	80.01
368.58 K	87.01
370.61 K	94.01
370.66 K	94
371.17 K	94
